Assay results published in PubChem BioAssay (NCI).
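Cells were grown in 96-well plates and exposed to each compound for 48 hours at five concentrations; endpoints were interpolated linearly between bracketing concentrations, or set to the highest concentration if not reached. At the GI50, growth is halved. TGI: concentration producing complete growth inhibition.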

Legend:
Assay in all cases: DTP human tumour cell line panel, 48 h
M14 melanoma = test system: M14 melanoma
M19-MEL melanoma = test system: M19-MEL melanoma
SNB-19 CNS = test system: SNB-19 CNS
UO-31 renal = test system: UO-31 renal
DLD-1 colon = test system: DLD-1 colon
SK-MEL-28 melanoma = test system: SK-MEL-28 melanoma
RXF 393 renal = test system: RXF 393 renal
SN12C renal = test system: SN12C renal
CAKI-1 renal = test system: CAKI-1 renal
NCI-H226 lung = test system: NCI-H226 lung
SNB-78 CNS = test system: SNB-78 CNS
SF-295 CNS = test system: SF-295 CNS
IGROV1 ovarian = test system: IGROV1 ovarian
OVCAR-4 ovarian = test system: OVCAR-4 ovarian
NCI-H23 lung = test system: NCI-H23 lung
LXFL 529 NSCLC = test system: LXFL 529 NSCLC
MALME-3M melanoma = test system: MALME-3M melanoma
786-0 renal = test system: 786-0 renal
SNB-75 CNS = test system: SNB-75 CNS
U251 CNS = test system: U251 CNS
OVCAR-3 ovarian = test system: OVCAR-3 ovarian
EKVX NSCLC = test system: EKVX NSCLC
OVCAR-8 ovarian = test system: OVCAR-8 ovarian
A549 NSCLC = test system: A549 NSCLC
HCT-116 colon = test system: HCT-116 colon
SW-620 colon = test system: SW-620 colon
HCT-15 colon = test system: HCT-15 colon
SR leukemia = test system: SR leukemia
KM20L2 colon = test system: KM20L2 colon
OVCAR-5 ovarian = test system: OVCAR-5 ovarian
DMS 114 small cell lung = test system: DMS 114 small cell lung
HOP-18 NSCLC = test system: HOP-18 NSCLC
HCC-2998 colon = test system: HCC-2998 colon
NCI-H460 lung = test system: NCI-H460 lung
COLO 205 colon = test system: COLO 205 colon
NCI-H522 lung = test system: NCI-H522 lung
SF-539 CNS = test system: SF-539 CNS
RPMI-8226 leukemia = test system: RPMI-8226 leukemia
SF-268 CNS = test system: SF-268 CNS
UACC-62 melanoma = test system: UACC-62 melanoma
SK-MEL-2 melanoma = test system: SK-MEL-2 melanoma
TK-10 renal = test system: TK-10 renal
MOLT-4 leukemia = test system: MOLT-4 leukemia
KM12 colon = test system: KM12 colon
HOP-62 NSCLC = test system: HOP-62 NSCLC
HT29 colon = test system: HT29 colon
SK-MEL-5 melanoma = test system: SK-MEL-5 melanoma
CCRF-CEM leukemia = test system: CCRF-CEM leukemia
UACC-257 melanoma = test system: UACC-257 melanoma
HOP-92 NSCLC = test system: HOP-92 NSCLC
ACHN renal = test system: ACHN renal
K-562 leukemia = test system: K-562 leukemia
LOX IMVI melanoma = test system: LOX IMVI melanoma
DMS 273 small cell lung = test system: DMS 273 small cell lung

## NCCN.NCCN.[Cl-].[O]=[Os+2]=[O]
M14 melanoma
  GI50: > 100 µM
  TGI: > 100 µM
M19-MEL melanoma
  GI50: 12 µM
  TGI: 28.8 µM
SNB-19 CNS
  GI50: > 100 µM
  TGI: > 100 µM
UO-31 renal
  GI50: > 100 µM
  TGI: > 100 µM
DLD-1 colon
  GI50: > 100 µM
  TGI: > 100 µM
SK-MEL-28 melanoma
  GI50: > 100 µM
  TGI: > 100 µM
RXF 393 renal
  GI50: > 100 µM
  TGI: > 100 µM
SN12C renal
  GI50: > 100 µM
  TGI: > 100 µM
CAKI-1 renal
  GI50: > 100 µM
  TGI: > 100 µM
NCI-H226 lung
  GI50: > 100 µM
  TGI: > 100 µM
SNB-78 CNS
  GI50: > 100 µM
  TGI: > 100 µM
SF-295 CNS
  GI50: > 100 µM
  TGI: > 100 µM
IGROV1 ovarian
  GI50: > 100 µM
  TGI: > 100 µM
OVCAR-4 ovarian
  GI50: > 100 µM
  TGI: > 100 µM
NCI-H23 lung
  GI50: > 100 µM
  TGI: > 100 µM
LXFL 529 NSCLC
  GI50: > 100 µM
  TGI: > 100 µM
MALME-3M melanoma
  GI50: > 100 µM
  TGI: > 100 µM
786-0 renal
  GI50: > 100 µM
  TGI: > 100 µM
SNB-75 CNS
  GI50: 71 µM
  TGI: > 100 µM
U251 CNS
  GI50: > 100 µM
  TGI: > 100 µM
OVCAR-3 ovarian
  GI50: > 100 µM
  TGI: > 100 µM
EKVX NSCLC
  GI50: > 100 µM
  TGI: > 100 µM
OVCAR-8 ovarian
  GI50: > 100 µM
  TGI: > 100 µM
A549 NSCLC
  GI50: > 100 µM
  TGI: > 100 µM
HCT-116 colon
  GI50: > 100 µM
  TGI: > 100 µM
SW-620 colon
  GI50: > 100 µM
  TGI: > 100 µM
HCT-15 colon
  GI50: > 100 µM
  TGI: > 100 µM
SR leukemia
  GI50: 67.4 µM
  TGI: > 100 µM
KM20L2 colon
  GI50: > 100 µM
  TGI: > 100 µM
OVCAR-5 ovarian
  GI50: > 100 µM
  TGI: > 100 µM
DMS 114 small cell lung
  GI50: > 100 µM
  TGI: > 100 µM
HOP-18 NSCLC
  GI50: > 100 µM
  TGI: > 100 µM
HCC-2998 colon
  GI50: > 100 µM
  TGI: > 100 µM
NCI-H460 lung
  GI50: > 100 µM
  TGI: > 100 µM
COLO 205 colon
  GI50: > 100 µM
  TGI: > 100 µM
NCI-H522 lung
  GI50: > 100 µM
  TGI: > 100 µM
SF-539 CNS
  GI50: > 100 µM
  TGI: > 100 µM
RPMI-8226 leukemia
  GI50: > 100 µM
  TGI: > 100 µM
SF-268 CNS
  GI50: > 100 µM
  TGI: > 100 µM
UACC-62 melanoma
  GI50: > 100 µM
  TGI: > 100 µM
SK-MEL-2 melanoma
  GI50: > 100 µM
  TGI: > 100 µM
TK-10 renal
  GI50: > 100 µM
  TGI: > 100 µM

## O=C1CN2C(Cl)(Cl)C2(c2ccccc2)c2cc(Cl)ccc2N1CC1CC1 (stereo unspecified)
MOLT-4 leukemia
  TGI: 54.8 µM
KM12 colon
  TGI: 30.2 µM
M14 melanoma
  TGI: 36.6 µM
M19-MEL melanoma
  TGI: 93.8 µM
UO-31 renal
  TGI: 66.6 µM
DLD-1 colon
  TGI: 44.2 µM
SK-MEL-28 melanoma
  TGI: 32.9 µM
RXF 393 renal
  TGI: 35.9 µM
HOP-62 NSCLC
  TGI: 50.3 µM
SN12C renal
  TGI: 35.5 µM
CAKI-1 renal
  TGI: > 100 µM
NCI-H226 lung
  TGI: 41.6 µM
SF-295 CNS
  TGI: 47.1 µM
HT29 colon
  TGI: 44.9 µM
OVCAR-4 ovarian
  TGI: > 100 µM
NCI-H23 lung
  TGI: 51.7 µM
LXFL 529 NSCLC
  TGI: > 100 µM
MALME-3M melanoma
  TGI: 32 µM
SNB-75 CNS
  TGI: 94.8 µM
U251 CNS
  TGI: 34.7 µM
OVCAR-3 ovarian
  TGI: 33.8 µM
EKVX NSCLC
  TGI: 89.1 µM
OVCAR-8 ovarian
  TGI: 29.8 µM
HCT-116 colon
  TGI: 35.8 µM
SW-620 colon
  TGI: > 100 µM
HCT-15 colon
  TGI: 48.9 µM
SK-MEL-5 melanoma
  TGI: 35.7 µM
SR leukemia
  TGI: 68.6 µM
KM20L2 colon
  TGI: 88.5 µM
OVCAR-5 ovarian
  TGI: > 100 µM
DMS 114 small cell lung
  TGI: 85.8 µM
HOP-18 NSCLC
  TGI: 81.2 µM
HCC-2998 colon
  TGI: 33.4 µM
NCI-H460 lung
  TGI: 32 µM
COLO 205 colon
  TGI: 38.8 µM
CCRF-CEM leukemia
  TGI: 61.4 µM
UACC-257 melanoma
  TGI: 40.9 µM
NCI-H522 lung
  TGI: 38.2 µM
RPMI-8226 leukemia
  TGI: 81.8 µM
HOP-92 NSCLC
  TGI: 26.2 µM
SF-268 CNS
  TGI: 86.1 µM
SK-MEL-2 melanoma
  TGI: 33.4 µM
ACHN renal
  TGI: 65.8 µM
K-562 leukemia
  TGI: 65.8 µM
LOX IMVI melanoma
  TGI: 31.6 µM
DMS 273 small cell lung
  TGI: 63.2 µM
TK-10 renal
  TGI: > 100 µM
